The text below walks through data of BindingDB's records for doi:10.1021/jm00055a007 (Abbott Laboratories, 1993).

Square brackets hold non-standard residues; d marks the D form. Peptide text beside a SMILES is read from it. 1Nal = N[C@@H](Cc1cccc2ccccc12)C(=O)O; pGlu = O=C1CC[C@@H](C(=O)O)N1; NMeS = CN[C@@H](CO)C(=O)O

This experiment has as its target Gonadotropin-releasing hormone receptor (Rattus norvegicus) (UniProt P30969).

Sequence of Gonadotropin-releasing hormone receptor (Rattus norvegicus) (P30969 whole entry, looked up): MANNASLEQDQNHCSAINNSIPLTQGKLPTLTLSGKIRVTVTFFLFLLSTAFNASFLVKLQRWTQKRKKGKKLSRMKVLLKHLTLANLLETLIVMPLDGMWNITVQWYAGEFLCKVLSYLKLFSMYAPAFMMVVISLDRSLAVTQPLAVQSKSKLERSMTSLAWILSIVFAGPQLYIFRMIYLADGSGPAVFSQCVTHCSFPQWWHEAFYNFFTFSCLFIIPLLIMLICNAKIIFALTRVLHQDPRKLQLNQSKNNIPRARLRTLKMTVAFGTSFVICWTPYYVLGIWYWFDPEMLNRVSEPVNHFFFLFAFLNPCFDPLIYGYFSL

As a reminder, the Ki is the equilibrium dissociation constant of an inhibitor or competing ligand from its target. Molecule `CC(C)C[C@H](NC(=O)CNC(=O)[C@H](Cc1ccc(O)cc1)NC(=O)[C@H](CO)NC(=O)[C@H](Cc1c[nH]c2ccccc12)NC(=O)[C@H](Cc1cnc[nH]1)NC(=O)[C@@H]1CCC(=O)N1)C(=O)N[C@@H](CCCN=C(N)N)C(=O)N1CCC[C@H]1C(=O)NCC(=O)O` [CAS_35263-73-1] came in with a Ki of 1.26 nM. `CCNC(=O)[C@@H]1CCCN1C(=O)[C@H](CCCN=C(N)N)NC(=O)[C@H](CC(C)C)NC(=O)[C@@H](Cc1c[nH]c2ccccc12)NC(=O)[C@H](Cc1ccc(O)cc1)NC(=O)[C@H](CO)NC(=O)[C@H](Cc1c[nH]c2ccccc12)NC(=O)[C@H](Cc1cnc[nH]1)N(C)C(=O)[C@@H]1CCC(=O)N1` [deslorelin 2NMeHis] gave a Ki of 1.41 nM.

For `CCNC(=O)[C@@H]1CCCN1C(=O)[C@H](CCCN=C(N)N)NC(=O)[C@H](CC(C)C)NC(=O)[C@@H](Cc1c[nH]c2ccccc12)NC(=O)[C@H](Cc1ccc(O)cc1)NC(=O)[C@H](CO)NC(=O)[C@H](Cc1cccc2ccccc12)N(C)C(=O)[C@H](Cc1c[nH]cn1)NC(=O)[C@@H]1CCC(=O)N1` [deslorelin 3NMe1Nal], the Ki is 1 nM. Consider `CCNC(=O)[C@@H]1CCCN1C(=O)[C@H](CCCN=C(N)N)NC(=O)[C@H](CC(C)C)NC(=O)[C@@H](Cc1c[nH]c2ccccc12)NC(=O)[C@H](Cc1ccc(O)cc1)N(C)C(=O)[C@H](CO)NC(=O)[C@H](Cc1c[nH]c2ccccc12)NC(=O)[C@H](Cc1c[nH]cn1)NC(=O)[C@@H]1CCC(=O)N1` [deslorelin 5NMeTyr], for which the affinity, expressed as Ki, was 0.09 nM. For `CCNC(=O)[C@@H]1CCCN1C(=O)[C@H](CCCN=C(N)N)NC(=O)[C@H](CC(C)C)N(C)C(=O)[C@@H](Cc1c[nH]c2ccccc12)NC(=O)[C@H](Cc1ccc(O)cc1)NC(=O)[C@H](CO)NC(=O)[C@H](Cc1c[nH]c2ccccc12)NC(=O)[C@H](Cc1cnc[nH]1)NC(=O)[C@@H]1CCC(=O)N1` [deslorelin 7NMeLeu], the affinity corresponds to a Ki of 0.06 nM. Molecule `CCNC(=O)[C@@H]1CCCN1C(=O)[C@H](CCCN=C(N)N)N(C)C(=O)[C@H](CC(C)C)NC(=O)[C@@H](Cc1c[nH]c2ccccc12)NC(=O)[C@H](Cc1ccc(O)cc1)NC(=O)[C@H](CO)NC(=O)[C@H](Cc1c[nH]c2ccccc12)NC(=O)[C@H](Cc1cnc[nH]1)NC(=O)[C@@H]1CCC(=O)N1` [deslorelin 8NMeArg] came in with a Ki of 0.31 nM. The molecule `CC(C)C[C@H](NC(=O)[C@@H](Cc1c[nH]c2ccccc12)NC(=O)[C@H](Cc1ccc(O)cc1)NC(=O)[C@H](CO)NC(=O)[C@H](Cc1c[nH]c2ccccc12)NC(=O)[C@H](Cc1c[nH]cn1)NC(=O)[C@@H]1CCC(=O)N1)C(=O)N[C@@H](CCCN=C(N)N)C(=O)N1CCC[C@H]1C(=O)N(C)CC(N)=O` [deslorelin 10SarNH2] displayed an inhibitory constant (Ki) of 0.32 nM. In turn, `CCNC(=O)[C@@H]1CCCN1C(=O)[C@H](CCCN=C(N)N)NC(=O)[C@H](CC(C)C)NC(=O)[C@@H](Cc1c[nH]c2ccccc12)NC(=O)[C@H](Cc1ccc(O)cc1)NC(=O)[C@H](CO)NC(=O)[C@H](Cc1cccc2ccccc12)NC(=O)[C@H](Cc1cnc[nH]1)NC(=O)[C@@H]1CCC(=O)N1` [deslorelin 31Nal] had a Ki of 0.02 nM. The molecule `CCNC(=O)[C@@H]1CCCN1C(=O)[C@H](CCCN=C(N)N)NC(=O)[C@H](CC(C)C)NC(=O)[C@@H](Cc1c[nH]c2ccccc12)NC(=O)[C@H](Cc1ccc(O)cc1)NC(=O)[C@H](CO)NC(=O)[C@H](Cc1c[nH]c2ccccc12)NC(=O)[C@H](Cc1cnc[nH]1)NC(=O)[C@@H]1CCC(=O)N1` [deslorelin] showed a Ki of 0.01 nM. In turn, `CCNC(=O)[C@@H]1CCCN1C(=O)[C@H](CCCN=C(N)N)NC(=O)[C@H](CC(C)C)NC(=O)[C@@H](CC(C)C)NC(=O)[C@H](Cc1ccc(O)cc1)NC(=O)[C@H](CO)NC(=O)[C@H](Cc1c[nH]c2ccccc12)NC(=O)[C@H](Cc1cnc[nH]1)N(C)C(=O)[C@@H]1CCC(=O)N1` [leuprolide 2 NMeHis] displayed a Ki of 33.1 nM. Take `CCNC(=O)[C@@H]1CCCN1C(=O)[C@H](CCCN=C(N)N)NC(=O)[C@H](CC(C)C)NC(=O)[C@@H](CC(C)C)NC(=O)[C@H](Cc1ccc(O)cc1)NC(=O)[C@H](CO)NC(=O)[C@H](Cc1c[nH]c2ccccc12)NC(=O)[C@H](Cc1ccccc1)NC(=O)[C@@H]1CCC(=O)N1` [leuprolide 2 Phe] ([pGlu]FWSY[dL]LRP-NHEt): the inhibitory constant (Ki) is 2.19 nM. Under `CCNC(=O)[C@@H]1CCCN1C(=O)[C@H](CCCN=C(N)N)NC(=O)[C@H](CC(C)C)NC(=O)[C@@H](CC(C)C)NC(=O)[C@H](Cc1ccc(O)cc1)NC(=O)[C@H](CO)NC(=O)[C@H](Cc1c[nH]c2ccccc12)NC(=O)[C@H](Cc1ccccc1)N(C)C(=O)[C@@H]1CCC(=O)N1` [leuprolide 2NMePhe] stands 12 nM; under `CCNC(=O)[C@@H]1CCCN1C(=O)[C@H](CCCN=C(N)N)NC(=O)[C@H](CC(C)C)NC(=O)[C@@H](CC(C)C)NC(=O)[C@H](Cc1ccc(O)cc1)NC(=O)[C@H](CO)NC(=O)[C@H](Cc1cccc2ccccc12)N(C)C(=O)[C@H](Cc1c[nH]cn1)NC(=O)[C@@H]1CCC(=O)N1` [leuprolide 3NMe1Nal], 3.24 nM.

For `CCNC(=O)[C@@H]1CCCN1C(=O)[C@H](CCCN=C(N)N)NC(=O)[C@H](CC(C)C)NC(=O)[C@@H](CC(C)C)NC(=O)[C@H](Cc1ccc(O)cc1)NC(=O)[C@H](CO)N(C)C(=O)[C@H](Cc1c[nH]c2ccccc12)NC(=O)[C@H](Cc1c[nH]cn1)NC(=O)[C@@H]1CCC(=O)N1` [leuprolide 4NMeSer] ([pGlu]HW[NMeS]Y[dL]LRP-NHEt), the inhibition constant Ki was 1.41 nM.

Molecule `CCNC(=O)[C@@H]1CCCN1C(=O)[C@H](CCCN=C(N)N)NC(=O)[C@H](CC(C)C)NC(=O)[C@@H](CC(C)C)N(C)C(=O)[C@H](Cc1ccc(O)cc1)NC(=O)[C@H](CO)NC(=O)[C@H](Cc1c[nH]c2ccccc12)NC(=O)[C@H](Cc1cnc[nH]1)NC(=O)[C@@H]1CCC(=O)N1` [leuprolide 6NMeDLeu] came in with an inhibition constant Ki of 3.8 nM. Molecule `CCNC(=O)[C@@H]1CCCN1C(=O)[C@H](CCCN=C(N)N)NC(=O)[C@H](CC(C)C)N(C)C(=O)[C@@H](CC(C)C)NC(=O)[C@H](Cc1ccc(O)cc1)NC(=O)[C@H](CO)NC(=O)[C@H](Cc1c[nH]c2ccccc12)NC(=O)[C@H](Cc1c[nH]cn1)NC(=O)[C@@H]1CCC(=O)N1` [leuprolide 7NMeLeu] yielded a Ki of 0.16 nM. As for `CCNC(=O)[C@@H]1CCCN1C(=O)[C@H](CCCN=C(N)N)N(C)C(=O)[C@H](CC(C)C)NC(=O)[C@@H](CC(C)C)NC(=O)[C@H](Cc1ccc(O)cc1)NC(=O)[C@H](CO)NC(=O)[C@H](Cc1c[nH]c2ccccc12)NC(=O)[C@H](Cc1c[nH]cn1)NC(=O)[C@@H]1CCC(=O)N1` [leuprolide 8NMeArg], the Ki was found to be 347 nM. Under `CCNC(=O)[C@@H]1CCCN1C(=O)[C@H](CCCN=C(N)N)NC(=O)[C@H](CC(C)C)NC(=O)[C@@H](CC(C)C)NC(=O)[C@H](Cc1ccc(O)cc1)NC(=O)[C@H](CO)NC(=O)[C@H](Cc1cccc2ccccc12)NC(=O)[C@H](Cc1c[nH]cn1)NC(=O)[C@@H]1CCC(=O)N1` [leuprolide 31Nal] ([pGlu]H[1Nal]SY[dL]LRP-NHEt) stands 0.09 nM; under `CC(C)C[C@H](NC(=O)[C@@H](Cc1ccc2ccccc2c1)NC(=O)[C@H](Cc1ccc(O)cc1)NC(=O)[C@H](CO)NC(=O)[C@H](Cc1c[nH]c2ccccc12)NC(=O)[C@H](Cc1cnc[nH]1)N(C)C(=O)[C@@H]1CCC(=O)N1)C(=O)N[C@@H](CCCN=C(N)N)C(=O)N1CCC[C@H]1C(=O)NCC(N)=O` [nafarelin 2NMeHis], 1.41 nM. Under `CC(C)C[C@H](NC(=O)[C@@H](Cc1ccc2ccccc2c1)NC(=O)[C@H](Cc1ccc(O)cc1)NC(=O)[C@H](CO)NC(=O)[C@H](Cc1c[nH]c2ccccc12)NC(=O)[C@H](Cc1ccccc1)N(C)C(=O)[C@@H]1CCC(=O)N1)C(=O)N[C@@H](CCCN=C(N)N)C(=O)N1CCC[C@H]1C(=O)NCC(N)=O` [nafarelin 2NMePhe] stands 0.3 nM.

`CC(C)C[C@H](NC(=O)[C@@H](Cc1ccc2ccccc2c1)NC(=O)[C@H](Cc1ccc(O)cc1)NC(=O)[C@H](CO)NC(=O)[C@H](Cc1c[nH]c2ccccc12)NC(=O)[C@H](Cc1ccccc1)NC(=O)[C@@H]1CCC(=O)N1)C(=O)N[C@@H](CCCN=C(N)N)C(=O)N1CCC[C@H]1C(=O)NCC(N)=O` [nafarelin 2Phe]: the affinity, expressed as Ki, was 0.07 nM. Under `CC(C)C[C@H](NC(=O)[C@@H](Cc1ccc2ccccc2c1)NC(=O)[C@H](Cc1ccc(O)cc1)NC(=O)[C@H](CO)NC(=O)[C@H](Cc1cccc2ccccc12)N(C)C(=O)[C@H](Cc1cnc[nH]1)NC(=O)[C@@H]1CCC(=O)N1)C(=O)N[C@@H](CCCN=C(N)N)C(=O)N1CCC[C@H]1C(=O)NCC(N)=O` [nafarelin 3NMe1Nal] stands 0.74 nM; under `CC(C)C[C@H](NC(=O)[C@@H](Cc1ccc2ccccc2c1)NC(=O)[C@H](Cc1ccc(O)cc1)NC(=O)[C@H](CO)N(C)C(=O)[C@H](Cc1c[nH]c2ccccc12)NC(=O)[C@H](Cc1c[nH]cn1)NC(=O)[C@@H]1CCC(=O)N1)C(=O)N[C@@H](CCCN=C(N)N)C(=O)N1CCC[C@H]1C(=O)NCC(N)=O` [nafarelin 4NMeSer], 0.04 nM; under `CC(C)C[C@H](NC(=O)[C@@H](Cc1ccc2ccccc2c1)NC(=O)[C@H](Cc1ccc(O)cc1)N(C)C(=O)[C@H](CO)NC(=O)[C@H](Cc1c[nH]c2ccccc12)NC(=O)[C@H](Cc1c[nH]cn1)NC(=O)[C@@H]1CCC(=O)N1)C(=O)N[C@@H](CCCN=C(N)N)C(=O)N1CCC[C@H]1C(=O)NCC(N)=O` [nafarelin 5NMeTyr], 0.03 nM.

Molecule `CC(C)C[C@H](NC(=O)[C@@H](Cc1ccc2ccccc2c1)N(C)C(=O)[C@H](Cc1ccc(O)cc1)NC(=O)[C@H](CO)NC(=O)[C@H](Cc1c[nH]c2ccccc12)NC(=O)[C@H](Cc1c[nH]cn1)NC(=O)[C@@H]1CCC(=O)N1)C(=O)N[C@@H](CCCN=C(N)N)C(=O)N1CCC[C@H]1C(=O)NCC(N)=O` [nafarelin 6NMe2Nal] showed a Ki of 2.69 nM. For the molecule `CC(C)C[C@@H](C(=O)N[C@@H](CCCN=C(N)N)C(=O)N1CCC[C@H]1C(=O)NCC(N)=O)N(C)C(=O)[C@@H](Cc1ccc2ccccc2c1)NC(=O)[C@H](Cc1ccc(O)cc1)NC(=O)[C@H](CO)NC(=O)[C@H](Cc1c[nH]c2ccccc12)NC(=O)[C@H](Cc1c[nH]cn1)NC(=O)[C@@H]1CCC(=O)N1` [nafarelin 7NMeLeu], the Ki stood at 0.03 nM.
